Experimental data from patent publication US6352976B1, “Selective inhibitors of MMP-12” (Aventis Pharmaceuticals Inc., priority 1998, dated 2002).

Target: T1, MMP-12 (macrophage metalloelastase) (Homo sapiens, UniProt P39900)
T1 construct: made in house
Test: Determination of the inhibition constant (Ki) for MMP-12, fluorogenic substrate
Format: biochemical
Conditions: compared to their N-methylamide derivatives (Examples 6 and 7); from Ki values of Table 2
Method: MMP-12 (EC3.4.24.65) was cloned, expressed and purified according to Shapiro, S. D. et al., J Biol. Chem. 268, 23824-23829 (1993). […] Aliquots of MMP-12 were stored at −70° C.
The potency of inhibitors of MMP-12 was measured using either quartz cuvettes or microtiter plates. The activity of MMP-12 was measured using a fluorogenic substrate, Mca-Pro-Leu-Gly-Leu-Dpa-Ala-Arg-NH2 SEQ ID NO1, Knight, C. G. et al., FEBS Lett. 296,263-266 (1992), at 25° C. in an assay buffer containing 50 mM Tris, pH 7.6, 0.2 M sodium chloride, 50 mM calcium chloride, and 0.02% Brij-35. The increase in fluorescence due to cleavage of Gly-Leu peptide bond by MMP-12 was monitored with a Perkin-Elmer LS50B Fluorimeter (λex 328 nm, λem 393 nm, excitation slit 2.5, emission slit 10) for the cuvette assay and with a Molecular Devices Fmax fluorescence plate reader (λex 320 nm, λem 405 nm) for the microtiter plate assay. Substrate and inhibitor stock solutions were made in N,N-dimethylformamide (DMF) and 0.1% HCl-DMF, respectively.
Ki values were determined using the cuvette method by preparing a series of intermediate inhibitors solutions in 0.1% HCl-DMF and mixing the inhibitor with substrate (final concentration 2 μM) in a quartz cuvette containing 2 ml of assay buffer. MMP-12 was added to start the reaction at a concentration of 2 nM and progress curves were generated. For routine measurement of a Ki value for a reversible competitive inhibitor, the initial rates in the presence of at least four inhibitor concentrations (two concentrations above and two concentrations below the Ki) were measured [S]=2 μM (<<Km) and [MMP-12]=2 nM. Under these conditions, the measured Ki,app is close to the true Ki.
Ki values were determined using the microtiter plate method in a manner similar to that described for the cuvette method with some modifications. Four different inhibitor concentrations (50 μl in assay buffer) of each compound were added to separate wells of a microtiter plate and substrate was added (100 μl) to get a final concentration of […]. MMP-12 was added to a final concentration of 2 nM (50 μl) to start the reaction. Cleavage of substrate was recorded every 30 seconds for 30 minutes and progress curves were generated.
The Ki for a competitive inhibitor was calculated using: V0/Vi=(1+[I]/Ki,app) and Ki=Ki,app/(1+[S]/Km), where V0 is the initial rate in the absence of inhibitor, Vi is the initial rate in the presence of inhibitor at the concentration of [I], [S] is the substrate concentration, and Km is the Michaelis constant. If slow binding is observed (i.e. if the approach to the binding equilibrium is slow), the final steady-state rate rather than the initial rate is taken as Vi.

T1 sequence (P39900 106-263 limits assumed): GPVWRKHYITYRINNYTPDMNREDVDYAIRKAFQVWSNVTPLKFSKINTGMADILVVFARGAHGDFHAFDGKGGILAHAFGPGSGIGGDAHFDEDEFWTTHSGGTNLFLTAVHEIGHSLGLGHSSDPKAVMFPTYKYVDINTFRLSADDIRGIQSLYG

Row | SMILES | selectivity for MMP-12 over MMP-1, MMP-2, and MMP-3
1 | CC(C)[C@H](S)C(=O)N[C@@H](CCc1ccccc1)C(=O)N[C@@H](Cc1ccccc1)C(=O)O [Example 2, (S)-2-Mercapto-3-methylbutyroyl-(L)-homo-phenylalanyl-(L)-phenylalanine] | selective for MMP-12 over MMP-1, MMP-2, and MMP-3
2 | CCCC(S)C(=O)N[C@@H](CCc1ccccc1)C(=O)N[C@@H](Cc1ccccc1)C(=O)O (some centres unmarked) [Example 1, 2-Mercapto-pentanoyl-(L)-homo-phenylalanyl-(L)-phenylalanine] | selective for MMP-12 over MMP-1, MMP-2, and MMP-3
